Laboratory results reported in ChEMBL document CHEMBL5365521, “Discovery of the Potent and Selective Inhaled Janus Kinase 1 Inhibitor AZD4604 and Its Preclinical Characterization” (J Med Chem, 2023).
Values after ≈ are worked out from the molar mass of the structure shown. Active and inactive are the calls of the source. No cut-off for these calls is given here.

How the values were obtained:
[1] = target: T1, Tyrosine-protein kinase JAK1 (Homo sapiens, UniProt P23458); test: Inhibition of GST-tagged human recombinant JAK1 (866 to 1154 residues) expressed in insect cells
T1 sequence (P23458 whole entry, the tested form may be a part): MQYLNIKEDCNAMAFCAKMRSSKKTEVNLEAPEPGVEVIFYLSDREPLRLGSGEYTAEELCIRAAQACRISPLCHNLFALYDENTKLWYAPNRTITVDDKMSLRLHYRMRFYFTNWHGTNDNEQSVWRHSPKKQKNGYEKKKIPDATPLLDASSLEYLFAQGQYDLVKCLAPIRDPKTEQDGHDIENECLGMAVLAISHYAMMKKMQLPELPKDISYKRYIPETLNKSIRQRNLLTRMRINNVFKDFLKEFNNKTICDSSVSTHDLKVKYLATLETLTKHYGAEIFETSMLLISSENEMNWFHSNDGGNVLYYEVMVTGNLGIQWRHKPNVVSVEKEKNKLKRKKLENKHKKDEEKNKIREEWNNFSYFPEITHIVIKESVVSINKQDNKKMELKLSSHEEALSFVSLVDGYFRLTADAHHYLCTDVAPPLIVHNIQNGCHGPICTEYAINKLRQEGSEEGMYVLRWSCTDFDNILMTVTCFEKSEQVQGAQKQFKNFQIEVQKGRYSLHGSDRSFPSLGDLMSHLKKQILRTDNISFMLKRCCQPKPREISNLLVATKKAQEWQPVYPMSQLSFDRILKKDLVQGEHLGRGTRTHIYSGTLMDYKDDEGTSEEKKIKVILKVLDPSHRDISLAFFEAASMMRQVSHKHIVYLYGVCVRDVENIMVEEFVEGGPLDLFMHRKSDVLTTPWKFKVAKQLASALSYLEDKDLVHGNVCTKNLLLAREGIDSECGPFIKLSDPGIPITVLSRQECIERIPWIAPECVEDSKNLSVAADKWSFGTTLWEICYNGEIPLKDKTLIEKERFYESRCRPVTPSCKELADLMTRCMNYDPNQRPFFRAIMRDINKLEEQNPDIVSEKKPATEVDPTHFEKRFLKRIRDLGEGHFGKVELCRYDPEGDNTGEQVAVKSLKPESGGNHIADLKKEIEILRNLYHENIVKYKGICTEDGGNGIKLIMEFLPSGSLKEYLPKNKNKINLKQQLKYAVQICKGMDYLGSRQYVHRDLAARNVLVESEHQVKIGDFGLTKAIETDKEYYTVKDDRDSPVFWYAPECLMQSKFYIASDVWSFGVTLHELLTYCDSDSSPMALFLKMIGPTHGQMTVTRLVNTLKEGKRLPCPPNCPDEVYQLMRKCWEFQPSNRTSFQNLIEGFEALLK

[2] = Metabolic stability in human hepatocyte assessed as intrinsic clearance measured per 10^6 cells; assay type: ADME, cell-based; conditions: hepatocytes, read-out: CLH
Th2 cell [3] = test: Inhibition of human naive Th2 cell differentiation assessed as decrease in IL-5 production measured after 5 days by MSD assay; assay type: functional, cell-based; conditions: time 5.0 day
Th1 cell = test: Inhibition of human naive Th1 cell differentiation assessed as decrease in IFNg production measured after 5 days by MSD assay; assay type: functional, cell-based; conditions: dose 1-10000 nM, time 5.0 day
[4] = Thermodynamic solubility of the compound in phosphate buffer at pH 7.4 measured after 24 hrs by HPLC-MS analysis; assay type: physicochemical; conditions: read-out: Therm_solubility
[5] = Drug uptake in lung of rat at 0.06 to 24.79 microg/kg via inhalation measured upto 24 hrs by LC-MS/MS analysis; assay type: ADME, tissue-based; conditions: in vivo, inhaled_or_intranasal, dose 0.06-24.79 µg/kg
[6] = Toxicity in human naive Th1 cell assessed as reduction in cell viability at 1 to 10000 nM; assay type: cell-based; conditions: 10 µM, dose 1-10000 nM
[7] = Inhibition of JAK/STAT signaling pathway in human CD14-positive cell monocytes isolated from human PBMC assessed as inhibition of IL-13 stimulated STAT6 phosphorylation preincubated for 20 to 60 mins followed by IL-13 stimulation measured after 15 mins by flow cytometry analysis; assay type: cell-based
[8] = Inhibition of JAK/STAT signaling pathway in human U-937 cells assessed as inhibition of IL-4 stimulated STAT6 phosphorylation; assay type: cell-based
[9] = Volume of distribution at steady state in Han Wistar rat at 1 mg/kg, po or 0.5 mg/kg, iv; assay type: ADME, organism-based; conditions: in vivo
[10] = Volume of distribution at steady state in Han Wistar rat at 0.5 mg/kg, iv; assay type: ADME, organism-based; conditions: in vivo, read-out: Vdss
[11] = Plasma protein binding in human assessed as free fraction; assay type: ADME, cell-free
[12] = Drug uptake in lung of rat at 0.020 micromol/kg, IT; assay type: ADME, tissue-based; conditions: in vivo, other, dose 0.02 µmol/kg
[13] = Metabolic stability in rat hepatocyte assessed as intrinsic clearance measured per 10^6 cells; assay type: ADME, cell-based; conditions: hepatocytes, read-out: CLH
[14] = Inhibition of JAK/STAT signaling pathway in human CD4+ T cell assessed as inhibition of IL-4 stimulated STAT6 phosphorylation preincubated for 20 to 60 mins followed by IL-4 stimulation measured after 15 mins by flow cytometry analysis; assay type: cell-based
[15] = Terminal half life in Han Wistar rat at 1 mg/kg, po; assay type: ADME, organism-based; conditions: in vivo, read-out: beta t1/2 (converted)
[16] = Apparent permeability of compound across apical to basolateral side in human Caco-2 cells at pH 7.4; assay type: ADME, cell-based; conditions: Caco-2, pH 7.4
[17] = Toxicity in human naive Th2 cell assessed as reduction in cell viability at 1 to 10000 nM; assay type: cell-based; conditions: 10 µM, dose 1-10000 nM
[18] = target: T2, Tyrosine-protein kinase JAK3 (Homo sapiens, UniProt P52333); test: Inhibition of GST-tagged human recombinant JAK3 (781 to 1124 residues) expressed in insect cells
T2 sequence (P52333 whole entry): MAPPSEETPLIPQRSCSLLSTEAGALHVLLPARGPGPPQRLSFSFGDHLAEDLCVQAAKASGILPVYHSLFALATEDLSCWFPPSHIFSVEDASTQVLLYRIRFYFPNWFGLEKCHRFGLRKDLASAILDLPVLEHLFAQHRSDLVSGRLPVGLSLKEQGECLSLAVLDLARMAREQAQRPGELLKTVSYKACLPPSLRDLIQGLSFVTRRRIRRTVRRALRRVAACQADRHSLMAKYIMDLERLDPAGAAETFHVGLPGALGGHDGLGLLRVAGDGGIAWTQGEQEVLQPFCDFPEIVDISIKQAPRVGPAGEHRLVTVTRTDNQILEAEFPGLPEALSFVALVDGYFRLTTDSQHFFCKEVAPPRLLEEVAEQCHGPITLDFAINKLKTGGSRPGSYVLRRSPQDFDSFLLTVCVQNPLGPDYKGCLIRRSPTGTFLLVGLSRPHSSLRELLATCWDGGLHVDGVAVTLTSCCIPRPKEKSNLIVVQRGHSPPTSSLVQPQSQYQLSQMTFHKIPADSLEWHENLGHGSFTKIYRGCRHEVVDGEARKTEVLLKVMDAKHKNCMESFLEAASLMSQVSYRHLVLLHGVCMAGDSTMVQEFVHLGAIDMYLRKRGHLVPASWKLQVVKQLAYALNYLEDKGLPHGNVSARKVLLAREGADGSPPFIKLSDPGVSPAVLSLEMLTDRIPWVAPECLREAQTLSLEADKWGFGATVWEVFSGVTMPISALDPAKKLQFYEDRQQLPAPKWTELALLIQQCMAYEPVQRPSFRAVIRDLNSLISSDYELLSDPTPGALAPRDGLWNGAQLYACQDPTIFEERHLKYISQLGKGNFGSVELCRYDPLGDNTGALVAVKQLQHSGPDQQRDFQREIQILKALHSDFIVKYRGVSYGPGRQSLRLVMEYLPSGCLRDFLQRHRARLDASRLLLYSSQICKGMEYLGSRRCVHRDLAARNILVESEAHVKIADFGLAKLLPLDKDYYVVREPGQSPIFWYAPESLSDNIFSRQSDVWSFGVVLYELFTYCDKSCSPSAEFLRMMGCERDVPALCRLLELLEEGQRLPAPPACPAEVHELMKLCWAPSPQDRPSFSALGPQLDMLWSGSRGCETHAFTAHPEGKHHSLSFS

[19] = Inhibition of JAK/STAT signaling pathway in human CD14-positive cell monocytes isolated from human PBMC assessed as inhibition of IL-4 stimulated STAT6 phosphorylation preincubated for 20 to 60 mins followed by IL-4 stimulation measured after 15 mins by flow cytometry analysis; assay type: cell-based
[20] = Metabolic stability in human liver microsomes assessed as intrinsic clearance; assay type: ADME, Microsome; conditions: read-out: CLH
[21] = Solubility in phosphate buffer at pH 7.4; assay type: physicochemical
[22] = Distribution coefficient between 1-Octanol and aqueous phosphate buffer, logD of the compound at pH 7.4 by shake-flask method; assay type: physicochemical; conditions: octanol/water
[23] = target: Non-receptor tyrosine-protein kinase TYK2 (Homo sapiens, UniProt P29597); test: Inhibition of GST-tagged human recombinant TYK2 (833 to 1187 residues) expressed in insect cells
Non-receptor tyrosine-protein kinase TYK2, sequence (P29597 whole entry, the tested form may be a part): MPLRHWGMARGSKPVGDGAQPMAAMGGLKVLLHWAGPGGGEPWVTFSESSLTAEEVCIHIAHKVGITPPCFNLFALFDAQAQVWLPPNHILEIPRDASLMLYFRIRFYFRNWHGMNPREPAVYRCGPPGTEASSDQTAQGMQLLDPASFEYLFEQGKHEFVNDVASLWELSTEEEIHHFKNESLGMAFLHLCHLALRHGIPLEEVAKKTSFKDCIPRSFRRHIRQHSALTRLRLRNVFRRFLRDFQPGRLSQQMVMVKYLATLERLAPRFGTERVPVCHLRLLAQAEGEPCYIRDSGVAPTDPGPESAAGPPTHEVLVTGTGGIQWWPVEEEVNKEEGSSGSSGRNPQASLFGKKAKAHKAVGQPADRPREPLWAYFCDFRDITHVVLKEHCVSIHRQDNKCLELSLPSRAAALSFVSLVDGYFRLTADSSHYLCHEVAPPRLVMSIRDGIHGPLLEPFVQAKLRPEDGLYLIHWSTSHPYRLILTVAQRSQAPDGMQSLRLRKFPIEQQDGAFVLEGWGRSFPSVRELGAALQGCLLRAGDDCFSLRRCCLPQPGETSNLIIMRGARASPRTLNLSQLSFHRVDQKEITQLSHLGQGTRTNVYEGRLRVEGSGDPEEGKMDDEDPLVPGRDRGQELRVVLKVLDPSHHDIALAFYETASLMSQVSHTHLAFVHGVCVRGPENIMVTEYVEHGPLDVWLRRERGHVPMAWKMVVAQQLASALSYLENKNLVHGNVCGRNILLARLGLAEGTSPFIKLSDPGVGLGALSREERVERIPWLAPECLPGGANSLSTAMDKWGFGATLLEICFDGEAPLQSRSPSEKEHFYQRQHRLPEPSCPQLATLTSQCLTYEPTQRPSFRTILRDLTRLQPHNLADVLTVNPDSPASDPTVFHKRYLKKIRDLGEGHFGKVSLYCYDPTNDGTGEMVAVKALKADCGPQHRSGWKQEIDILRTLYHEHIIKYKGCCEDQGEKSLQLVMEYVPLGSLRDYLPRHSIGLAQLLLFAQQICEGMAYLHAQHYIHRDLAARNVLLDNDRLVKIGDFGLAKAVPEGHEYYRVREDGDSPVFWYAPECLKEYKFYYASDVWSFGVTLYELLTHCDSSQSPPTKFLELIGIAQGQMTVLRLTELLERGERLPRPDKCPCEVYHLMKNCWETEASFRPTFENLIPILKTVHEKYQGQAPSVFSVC

[24] = target: T1, Tyrosine-protein kinase JAK1; test: Inhibition of JAK1 in human CD14-positive cell monocytes isolated from human PBMC assessed as reduction in dendritic cells development measured after 5 days by flow cytometry analysis; assay type: cell-based; conditions: dose 10-1000 nM, time 5.0 day
[25] = target: T1, Tyrosine-protein kinase JAK1; test: Inhibition of JAK1 in human CD14-positive cell monocytes isolated from human PBMC assessed as reduction in mature dendritic phenotype by measuring CD11c expression level at 100 nM measured after 5 days by CD11c PE-CF594 staining based flow cytometry analysis; conditions: time 5.0 day
[26] = Oral bioavailability in Han Wistar rat at 1 mg/kg; assay type: ADME, organism-based; conditions: in vivo
Th2 cell [27] = test: Inhibition of human naive Th2 cell differentiation assessed as decrease in IL-13 production measured after 5 days by MSD assay; assay type: functional, cell-based; conditions: time 5.0 day
[28] = target: T1, Tyrosine-protein kinase JAK1; test: Inhibition of JAK1 in human CD14-positive cell monocytes isolated from human PBMC assessed as reduction in mature dendritic phenotype by measuring CD14 expression level at 100 nM measured after 5 days by CD14 APC staining based flow cytometry analysis; conditions: time 5.0 day
[29] = AUC(0 to 24 hrs) in rat at 0.020 micromol/kg, IT; assay type: ADME; set-up: dose 0.02 µmol/kg, route it; conditions: in vivo, 0.02 µmol/kg
[30] = Toxicity in human memory-derived Th17 cells assessed as reduction in cell viability at 1 to 10000 nM; assay type: cell-based; conditions: th17, 10 µM, dose 1-10000 nM
Th17 = test: Inhibition of human memory-derived Th17 cell differentiation assessed as decrease in IL-17 production measured after 5 days by MSD assay; assay type: functional, cell-based; conditions: time 5.0 day
CD4+ T cell = test: Antiinflammatory activity in human CD4+ T cell assessed as reduction in CD25 expression measured after 5 days by eFluor780 staining based flow cytometry analysis; assay type: functional; conditions: dose 1-10000 nM, time 5.0 day
Th2 cell [31] = test: Inhibition of human naive Th2 cell differentiation assessed as decrease in IL-4 production measured after 5 days by MSD assay; assay type: functional, cell-based; conditions: dose 1-10000 nM, time 5.0 day
[32] = Toxicity in human CD4+ T cell assessed as reduction in cell viability measured after 5 days by eFluor780 staining based flow cytometry analysis; conditions: 120 h, dose 1-10000 nM, time 5 day

COC[C@H](C(=O)Nc1cccc2c(-c3nc(Nc4cccc(S(C)(=O)=O)c4F)ncc3F)c[nH]c12)N1CCN(C)CC1 [LONDAMOCITINIB]
IC50 [1]: 0.54 nM | hepatocyte CLint [2]: 1.3 µL/min/1e6 cells | inhibition (Th2 cell [3]): Dose-Dependent Effect | inhibition (Th1 cell): Dose-Dependent Effect | solubility thermodynamic at 24 h [4]: 7 µM (≈ 4.2 µg/mL) | Drug uptake [5]: Active | Activity [6]: Non-Toxic | IC50 [7]: 28 nM | IC50 [8]: 24 nM | Vdss [9]: 9.9 L/kg | Vd [10]: 11 L/kg | fraction unbound [11]: 0.08 | Drug uptake [12]: Active | hepatocyte CLint [13]: 6.9 µL/min/1e6 cells | IC50 [14]: 21 nM | half-life [15]: 4.7 h | Papp A→B [16]: 2.7 ×10⁻⁶ cm/s | Activity [17]: Non-Toxic | IC50 [18]: > 10000 nM | IC50 [19]: 20 nM | microsomal CLint [20]: 25 µL/min/mg | solubility [21]: 6 µM (≈ 3.6 µg/mL) | logD [22]: 2.6 | IC50 [23]: 657 nM | inhibition [24]: Dose-Dependent Effect | Activity [25]: Active | bioavailability [26]: 44% | inhibition (Th2 cell [27]): Dose-Dependent Effect | Activity [28]: Active | AUC(0-t) [29]: 8.6 µM·h | Activity [30]: Non-Toxic | inhibition (Th17): Dose-Dependent Effect | Activity (CD4+ T cell): Dose-Dependent Effect | inhibition (Th2 cell [31]): Dose-Dependent Effect | Activity [32]: Dose-Dependent Effect
